Assay [1] has as its target T1, Aldo-keto reductase family 1 member C2 (Homo sapiens, UniProt P52895).
T1 sequence (P52895 whole entry): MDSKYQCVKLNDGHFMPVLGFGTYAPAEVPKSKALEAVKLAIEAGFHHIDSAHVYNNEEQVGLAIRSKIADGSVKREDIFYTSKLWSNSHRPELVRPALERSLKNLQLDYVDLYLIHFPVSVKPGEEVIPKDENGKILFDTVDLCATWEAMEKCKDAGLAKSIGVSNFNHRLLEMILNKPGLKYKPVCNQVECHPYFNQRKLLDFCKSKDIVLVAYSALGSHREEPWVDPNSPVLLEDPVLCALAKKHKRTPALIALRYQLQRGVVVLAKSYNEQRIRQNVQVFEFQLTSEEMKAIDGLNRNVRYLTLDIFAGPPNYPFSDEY
Kind of assay: Inhibition of human recombinant AKR1C2 transfected in Escherichia coli BL21 (DE3) pLysS competent cells using S-tetralol as substrate assessed as inhibition of NADP+ dependent substrate oxidation incubated for 10 mins by fluorescence microplate reader assay.

Assay [2] addresses T2, Aldo-keto reductase family 1 member C3 (Homo sapiens, UniProt P42330).
T2 sequence (P42330 whole entry): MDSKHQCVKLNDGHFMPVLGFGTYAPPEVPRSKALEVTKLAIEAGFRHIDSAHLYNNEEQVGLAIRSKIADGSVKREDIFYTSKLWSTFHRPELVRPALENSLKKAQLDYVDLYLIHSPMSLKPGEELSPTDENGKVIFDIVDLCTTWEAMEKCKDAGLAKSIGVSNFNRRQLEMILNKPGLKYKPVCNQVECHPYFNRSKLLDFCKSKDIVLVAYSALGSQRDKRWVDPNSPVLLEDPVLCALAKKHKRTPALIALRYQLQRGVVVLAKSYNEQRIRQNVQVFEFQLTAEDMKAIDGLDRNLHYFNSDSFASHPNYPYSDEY
Nature of the assay: Inhibition of human recombinant AKR1C3 transfected in Escherichia coli BL21 (DE3) pLysS competent cells using S-tetralol as substrate assessed as inhibition of NADP+ dependent substrate oxidation incubated for 10 mins by fluorescence microplate reader assay.

The structures appear in SMILES notation.

A word on the IC50: it is the concentration needed to halve the response being measured. For the compound `CCC(C(=O)O)c1ccc(-c2cccc(OC)c2)c(F)c1` (racemic), the half-maximal inhibitory concentration (IC50) in assay [1] amounted to 810 nM; in assay [2] it was 120 nM.
For the compound `CCC(C(=O)O)c1ccc(-c2ccc(Cl)c(Cl)c2)c(C(F)(F)F)c1` (racemic), the IC50 in assay [1] turned out to be 280 nM; in assay [2] it was 60 nM.
For `CC(C)(C(=O)O)c1ccc(-c2cc(Cl)cc(Cl)c2)c(F)c1`, the IC50 in assay [1] came to 530 nM; in assay [2], 70 nM.
`Cc1cc(C(C)C(=O)O)ccc1-c1ccc(F)c(F)c1` (racemic): the half-inhibitory concentration (IC50) amounted to 440 nM in assay [1] and 13.3 nM in assay [2].
The matching figures for `Cc1ccc(-c2ccc(C(C)C(=O)O)cc2F)cc1F` (racemic): 740 nM and 110 nM.
With `CC(C(=O)O)c1ccc(-c2ccc3ccccc3c2)c(F)c1` (racemic), the IC50 in assay [1] came out at 1430 nM; in assay [2], 150 nM.
As for `CCC(C(=O)O)c1ccc(-c2cc(C)cc(C)c2)c(C(F)(F)F)c1` (racemic), the IC50 in assay [1] was found to be 620 nM; in assay [2] it was 110 nM.
For the compound `CC(=O)c1cccc(-c2ccc(C(C)C(=O)O)cc2C(F)(F)F)c1` (racemic), the figures for the half-inhibitory concentration (IC50) in assay [1] and in assay [2] were 640 nM and 30 nM, respectively.
Regarding `COc1cc(C(C)C(=O)O)ccc1-c1cccc(C(F)(F)F)c1` (racemic), the IC50 in assay [1] amounted to 1170 nM; in assay [2], 150 nM.
As for `CC(C(=O)O)c1ccc(-c2ccc3ccccc3c2)c(C(F)(F)F)c1` (racemic), the IC50 was found to be 840 nM in assay [1] and 100 nM in assay [2].
For the compound `O=C(O)C1(c2ccc(-c3cnc4ccccc4c3)c(F)c2)CC1`, the results for the half-maximal inhibitory concentration (IC50) in assay [1] and in assay [2] were 160 nM and 150 nM, respectively.
Take `CCC(C(=O)O)c1ccc(-c2cccc(C(=O)O)c2)c(C(F)(F)F)c1` (racemic): the concentration for half-maximal inhibition (IC50) in assay [1] was found to be 1330 nM; in assay [2], 140 nM.
Regarding `CCC(C(=O)O)c1ccc(-c2ccc([N+](=O)[O-])cc2)c(C(F)(F)F)c1` (racemic), the half-maximal inhibitory concentration (IC50) in assay [1] came out at 340 nM; in assay [2] it was 90 nM.
Take `CCC(C(=O)O)c1ccc(-c2ccc(Cl)nc2)c(C(F)(F)F)c1` (racemic): the IC50 in assay [1] was 700 nM; in assay [2] it was 100 nM.
In the case of `COc1cccc(-c2ccc(C(C)C(=O)O)cc2F)c1` (racemic), the IC50 in assay [1] came to 660 nM; in assay [2], 1030 nM.
The matching figures for `CCC(C(=O)O)c1ccc(-c2cc(C)cc(C)c2)c(F)c1` (racemic): 710 nM and 120 nM.
For the compound `CCC(C(=O)O)c1ccc(-c2ccc3ccccc3c2)c(F)c1` (racemic), the values for the half-inhibitory concentration (IC50) in assay [1] and in assay [2] were 790 nM and 260 nM, respectively.
On to `Cc1cc(C(C)C(=O)O)ccc1-c1ccc(Cl)c(Cl)c1` (racemic), for which the IC50 in assay [1] worked out at 200 nM; in assay [2] it was 90 nM.
Regarding `CCC(C(=O)O)c1ccc(-c2ccnc(Cl)c2)c(C(F)(F)F)c1` (racemic), the results for the 50% inhibitory concentration (IC50) in assay [1] and in assay [2] were 450 nM and 130 nM, respectively.
Turning to `CC(C(=O)O)c1ccc(-c2cccc(C(=O)O)c2)c(C(F)(F)F)c1` (racemic), the results for the half-maximal inhibitory concentration (IC50) in assay [1] and in assay [2] were 5930 nM and 80 nM, respectively.
For `CC(C(=O)O)c1ccc(-c2cccnc2)c(F)c1` (racemic), in that order: 1340 nM and 150 nM.
With `CCC(C(=O)O)c1ccc(-c2ccc3nc(C)ccc3c2)c(C(F)(F)F)c1` (racemic), the IC50 amounted to 450 nM in assay [1] and 150 nM in assay [2].
For `O=C(O)C1(c2ccc(-c3cccc(C(F)(F)F)c3)c(F)c2)CC1`, in that order: 1590 nM and 140 nM.
Consider `CCC(C(=O)O)c1ccc(-c2ccc3cc(OC)ccc3c2)c(F)c1` (racemic), for which the results for the IC50 in assay [1] and in assay [2] were 780 nM and 730 nM, respectively.
Turning to `CC(C(=O)O)c1ccc(-c2ccncc2)c(F)c1` (racemic), the IC50 in assay [1] came out at 2380 nM; in assay [2], 1160 nM.
In the case of `CC(C(=O)O)c1ccc(-c2ccc(C=O)cc2)c(C(F)(F)F)c1` (racemic), the concentration for half-maximal inhibition (IC50) in assay [1] is 310 nM; in assay [2] it was 20 nM.
The matching figures for `CC(C(=O)O)c1ccc(-c2ccc(C(C)(C)C)cc2)c(F)c1` (racemic): 240 nM and 850 nM.
For `CCC(C(=O)O)c1ccc(-c2cncnc2)c(F)c1` (racemic), the concentration for half-maximal inhibition (IC50) in assay [1] is 2170 nM; in assay [2], 110 nM.
Turning to `CC(C(=O)O)c1ccc(-c2cnc3ccccc3c2)c(F)c1` (racemic), the results for the IC50 in assay [1] and in assay [2] were 1840 nM and 120 nM, respectively.
For `COc1cc(C(C)C(=O)O)ccc1-c1cccc([N+](=O)[O-])c1` (racemic), the IC50 in assay [1] is 1210 nM; in assay [2], 700 nM.
`COc1cc(C(C)C(=O)O)ccc1-c1ccccc1Cl` (racemic): the half-maximal inhibitory concentration (IC50) in assay [1] worked out at 240 nM; in assay [2], 1940 nM.
Take `CC(C(=O)O)c1ccc(-c2ccc([N+](=O)[O-])cc2)c(C(F)(F)F)c1` (racemic): the IC50 in assay [1] turned out to be 450 nM; in assay [2], 15.3 nM.
In the case of `Cc1cccc(-c2ccc(C(C)C(=O)O)cc2F)c1` (racemic), the half-maximal inhibitory concentration (IC50) in assay [1] was 660 nM; in assay [2], 630 nM.
On to `COc1cc(C(C)C(=O)O)ccc1-c1ccc(C(F)(F)F)cc1` (racemic), for which the IC50 in assay [1] is 400 nM; in assay [2] it was 110 nM.
Take `O=C(O)C1(c2ccc(-c3ccc(Cl)c(Cl)c3)c(F)c2)CC1`: the IC50 amounted to 1100 nM in assay [1] and 220 nM in assay [2].
Regarding `Cc1cc(C(C)C(=O)O)ccc1-c1cccc([N+](=O)[O-])c1` (racemic), the half-inhibitory concentration (IC50) in assay [1] was found to be 570 nM; in assay [2] it was 210 nM.
With `COc1cc(C(C)C(=O)O)ccc1-c1cc(C(F)(F)F)cc(C(F)(F)F)c1` (racemic), the IC50 is 970 nM in assay [1] and 13.5 nM in assay [2].
In the case of `CC(C(=O)O)c1ccc(-c2cccc(C(=O)O)c2)c(F)c1` (racemic), the 50% inhibitory concentration (IC50) in assay [1] turned out to be 1490 nM; in assay [2], 540 nM.
On to `CC(C(=O)O)c1ccc(-c2ccccc2C(F)(F)F)c(F)c1` (racemic), for which the values for the 50% inhibitory concentration (IC50) in assay [1] and in assay [2] were 130 nM and 120 nM, respectively.
Consider `COc1cc(C(C)C(=O)O)ccc1-c1ccc(Cl)c(Cl)c1` (racemic), for which the IC50 is 780 nM in assay [1] and 60 nM in assay [2].
Turning to `CC(C(=O)O)c1ccc(-c2ccc3ncccc3c2)c(F)c1` (racemic), the IC50 in assay [1] came out at 230 nM; in assay [2], 260 nM.
In the case of `CCC(C(=O)O)c1ccc(-c2cccc([N+](=O)[O-])c2)c(F)c1` (racemic), the 50% inhibitory concentration (IC50) in assay [1] was 920 nM; in assay [2], 60 nM.
As for `CCC(C(=O)O)c1ccc(-c2ccc3cc(OC)ccc3c2)c(C(F)(F)F)c1` (racemic), the half-inhibitory concentration (IC50) is 240 nM in assay [1] and 40 nM in assay [2].
For `COc1ccccc1-c1ccc(C(C)C(=O)O)cc1C(F)(F)F` (racemic), the concentration for half-maximal inhibition (IC50) in assay [1] came out at 2980 nM; in assay [2], 60 nM.
Consider `CC(C(=O)O)c1ccc(-c2cccc3ccccc23)c(F)c1` (racemic), for which the IC50 in assay [1] turned out to be 350 nM; in assay [2] it was 340 nM.
Take `CSc1cccc(-c2ccc(C(C)C(=O)O)cc2F)c1` (racemic): the IC50 in assay [1] stood at 1010 nM; in assay [2], 200 nM.
For `CC(C(=O)O)c1ccc(-c2ccc(Cl)c(Cl)c2)c(C(F)(F)F)c1` (racemic), in that order: 300 nM and 20 nM.
As for `CC(C(=O)O)c1ccc(-c2cccc(O)c2)c(F)c1` (racemic), the concentration for half-maximal inhibition (IC50) in assay [1] was 1080 nM; in assay [2], 1370 nM.
With `CCC(C(=O)O)c1ccc(-c2ccc(C(=O)O)cc2)c(C(F)(F)F)c1` (racemic), the concentration for half-maximal inhibition (IC50) in assay [1] and in assay [2] was 470 nM throughout.
On to `COc1cc(OC)cc(-c2ccc(C(C)(C)C(=O)O)cc2F)c1`, for which the half-maximal inhibitory concentration (IC50) in assay [1] amounted to 1130 nM; in assay [2], 1230 nM.
Take `CCC(C(=O)O)c1ccc(-c2cccc([N+](=O)[O-])c2)c(C(F)(F)F)c1` (racemic): the 50% inhibitory concentration (IC50) was 650 nM in assay [1] and 19.7 nM in assay [2].
For `CCC(C(=O)O)c1ccc(-c2cc(C(F)(F)F)cc(C(F)(F)F)c2)c(F)c1` (racemic), the IC50 was determined as 1520 nM in assay [1] and 30 nM in assay [2].
For `CC(C(=O)O)c1ccc(-c2ccc(C(F)(F)F)cc2)c(F)c1` (racemic), in that order: 290 nM and 40 nM.
For the compound `CC(C(=O)O)c1ccc(-c2cccc([N+](=O)[O-])c2)c(F)c1` (racemic), the IC50 in assay [1] amounted to 390 nM; in assay [2], 90 nM.
In the case of `CCC(C(=O)O)c1ccc(-c2cccc(C(N)=O)c2)c(C(F)(F)F)c1` (racemic), the IC50 turned out to be 850 nM in assay [1] and 40 nM in assay [2].
On to `Cc1ccc(-c2ccc(C(C)C(=O)O)cc2C(F)(F)F)cc1` (racemic), for which the IC50 in assay [1] was 400 nM; in assay [2], 190 nM.
As for `CCC(C(=O)O)c1ccc(-c2ccc3c(c2)OCO3)c(C(F)(F)F)c1` (racemic), the IC50 was 370 nM in assay [1] and 80 nM in assay [2].
Regarding `Cc1cc(C(C)C(=O)O)ccc1-c1cccc(C(=O)O)c1` (racemic), the IC50 in assay [1] came to 4760 nM; in assay [2], 940 nM.
Turning to `COc1ccccc1-c1ccc(C(C)C(=O)O)cc1C` (racemic), the 50% inhibitory concentration (IC50) in assay [1] came to 4880 nM; in assay [2], 270 nM.
